Calls of active or inactive are those of the source.
Legend:
[1] = target: T1, Corticotropin-releasing factor receptor 2/Corticotropin-releasing factor-binding protein (Homo sapiens, UniProt P24387+Q13324); experiment: Dose Response confirmation of uHTS hits for small molecule antagonists of the CRF-binding protein and CRF-R2 receptor complex.; format: functional; conditions: read-out: IC50_Mean
T1 sequence (Q13324 whole entry): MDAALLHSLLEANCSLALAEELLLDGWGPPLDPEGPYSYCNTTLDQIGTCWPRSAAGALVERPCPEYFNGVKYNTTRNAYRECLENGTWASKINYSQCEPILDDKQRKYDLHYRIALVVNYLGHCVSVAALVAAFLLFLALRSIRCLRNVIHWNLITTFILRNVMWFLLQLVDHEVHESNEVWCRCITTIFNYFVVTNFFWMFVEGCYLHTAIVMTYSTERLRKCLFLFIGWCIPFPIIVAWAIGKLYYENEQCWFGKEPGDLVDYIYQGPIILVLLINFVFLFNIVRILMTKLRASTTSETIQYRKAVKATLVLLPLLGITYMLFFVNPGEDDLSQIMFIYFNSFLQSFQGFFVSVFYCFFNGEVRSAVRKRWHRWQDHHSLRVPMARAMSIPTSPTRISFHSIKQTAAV
T1 sequence (P24387 whole entry): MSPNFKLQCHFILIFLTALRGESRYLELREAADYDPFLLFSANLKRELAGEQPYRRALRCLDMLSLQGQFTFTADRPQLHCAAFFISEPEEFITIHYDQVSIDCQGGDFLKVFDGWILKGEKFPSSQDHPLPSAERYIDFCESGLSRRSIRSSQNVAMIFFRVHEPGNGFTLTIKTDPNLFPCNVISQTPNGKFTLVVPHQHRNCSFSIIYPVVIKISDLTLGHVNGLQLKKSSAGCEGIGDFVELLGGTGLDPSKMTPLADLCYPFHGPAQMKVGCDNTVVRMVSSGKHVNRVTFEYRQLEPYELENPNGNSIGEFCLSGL

[2] = target: T1, Corticotropin-releasing factor receptor 2/Corticotropin-releasing factor-binding protein; experiment: activators of CRF receptor 2 with binding protein – uHTS hits, confirmation (AID 602473); format: functional; conditions: read-out: EC50_Mean
[3] = NIH-3T3 fibroblast cytotoxicity, dose response, cytotoxicity control, cell-based, fluorescence, Alamar Blue, secondary assay (AID 2327); format: functional;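 note: NIH-3T3 mouse fibroblasts cultured with fluconazole at 8 µg/mL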
[4] = C. albicans growth with fluconazole, confirmation, fluorescence, retest (AID 2467); format: functional, cell-based
[5] = target: T2, Fatty acid synthase (Homo sapiens, UniProt P49327); experiment: FAS thioesterase domain inhibitors, dose response, biochemical, endpoint fluorescence intensity, uHTS hits (AID 624327); format: functional;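 note: fluorescence from hydrolysis of an O-methyl fluorescein acyl ester substrate by the enzyme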
[6] = target: T2, Fatty acid synthase; experiment: FAS thioesterase domain inhibitors, dose response, biochemical, kinetic fluorescence intensity (AID 624326); format: functional;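 note: rate of fluorescence rise from hydrolysis of a fluorogenic O-methyl fluorescein ester substrate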
[7] = target: T3, Replicative DNA helicase DnaB (Mycobacterium tuberculosis, UniProt P9WMR3); experiment: DnaB intein splicing inhibitors, dose response, biochemical, cell-free fluorescence (AID 449749); format: functional
T3 sequence (P9WMR3 whole entry): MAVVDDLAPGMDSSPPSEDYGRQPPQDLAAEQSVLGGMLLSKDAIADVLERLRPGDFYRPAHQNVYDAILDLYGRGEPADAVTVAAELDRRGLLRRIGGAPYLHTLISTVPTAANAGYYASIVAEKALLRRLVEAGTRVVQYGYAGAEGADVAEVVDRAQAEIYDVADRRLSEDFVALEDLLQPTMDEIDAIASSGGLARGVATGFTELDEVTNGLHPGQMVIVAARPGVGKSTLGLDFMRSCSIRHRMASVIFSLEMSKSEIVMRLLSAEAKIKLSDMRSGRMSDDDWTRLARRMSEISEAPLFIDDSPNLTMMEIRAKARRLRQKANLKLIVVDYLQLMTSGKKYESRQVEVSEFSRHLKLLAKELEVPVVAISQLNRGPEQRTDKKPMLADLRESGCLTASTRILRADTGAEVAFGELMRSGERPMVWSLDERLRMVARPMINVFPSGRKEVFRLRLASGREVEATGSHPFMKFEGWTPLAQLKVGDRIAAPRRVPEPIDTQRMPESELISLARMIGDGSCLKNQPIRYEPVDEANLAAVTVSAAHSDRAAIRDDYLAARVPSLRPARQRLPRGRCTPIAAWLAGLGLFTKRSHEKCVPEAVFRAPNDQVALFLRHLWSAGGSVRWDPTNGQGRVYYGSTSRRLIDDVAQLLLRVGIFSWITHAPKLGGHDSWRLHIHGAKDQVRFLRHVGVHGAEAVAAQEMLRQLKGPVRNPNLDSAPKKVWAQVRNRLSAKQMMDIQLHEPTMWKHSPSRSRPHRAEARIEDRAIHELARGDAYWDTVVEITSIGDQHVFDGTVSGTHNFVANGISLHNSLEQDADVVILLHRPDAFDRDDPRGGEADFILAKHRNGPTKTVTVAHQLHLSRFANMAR

[8] = target: T4, Protein RecA (Mycobacterium tuberculosis, UniProt P9WHJ3); experiment: Fluorescence Cell-Free Homogeneous Dose Retest to Identify Inhibitors of RecA-Intein Splicing Activity. [Related pubchem assays (depositor defined):AID2097, AID2223, AID489010, AID492950]; format: functional
T4 sequence (P9WHJ3 whole entry): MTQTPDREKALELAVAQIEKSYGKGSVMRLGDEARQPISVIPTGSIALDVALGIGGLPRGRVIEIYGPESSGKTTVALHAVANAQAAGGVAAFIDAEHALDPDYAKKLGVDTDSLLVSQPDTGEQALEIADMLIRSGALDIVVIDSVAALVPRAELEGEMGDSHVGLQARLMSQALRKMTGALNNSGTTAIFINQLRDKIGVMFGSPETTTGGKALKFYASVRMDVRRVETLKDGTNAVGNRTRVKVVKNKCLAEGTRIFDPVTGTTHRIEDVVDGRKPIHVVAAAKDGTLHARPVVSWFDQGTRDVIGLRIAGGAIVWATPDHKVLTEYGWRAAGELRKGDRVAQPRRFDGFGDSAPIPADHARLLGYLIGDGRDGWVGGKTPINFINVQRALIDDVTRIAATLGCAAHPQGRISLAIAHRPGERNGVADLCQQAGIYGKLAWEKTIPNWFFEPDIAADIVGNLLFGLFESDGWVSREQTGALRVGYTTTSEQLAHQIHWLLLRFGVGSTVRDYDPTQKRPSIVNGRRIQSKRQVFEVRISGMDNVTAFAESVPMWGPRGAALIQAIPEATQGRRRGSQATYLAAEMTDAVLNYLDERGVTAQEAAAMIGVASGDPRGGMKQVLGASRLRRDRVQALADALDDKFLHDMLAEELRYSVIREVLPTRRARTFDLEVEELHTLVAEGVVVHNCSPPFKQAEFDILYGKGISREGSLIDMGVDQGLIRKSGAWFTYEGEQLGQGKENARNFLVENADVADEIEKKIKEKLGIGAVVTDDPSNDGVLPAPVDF

[9] = inhibitors of intracellular T. cruzi replication, confirmation, NIH3T3 host cells, beta-gal luminescence (AID 2044); format: functional, cell-based;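 note: intracellular parasites grown in NIH/3T3 mouse fibroblasts as host cells; luminescent beta-galactosidase reporter signal from transgenic T. cruzi replicating inside host cells; inhibitors lower the luminescence signal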
[10] = cytotoxicity toward NIH3T3 fibroblasts, dose response, counter-screen, cell-based, ATP luminescence, mouse fibroblasts (AID 2010); format: functional;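 note: cells exposed to compound for about 90 hours before reading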
[11] = target: Cytochrome P450 3A4 (Homo sapiens, UniProt P08684);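 note: CYP3A4 tested as one member of a cytochrome P450 panel screen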
[12] = test system: H9c2; experiment: cells; format: functional, cell-based; conditions: Rattus norvegicus, H9c2, Myocardium;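 note: confirmatory concentration-response retest of ultra-high-throughput screening hits for modulation of myocardial damage; cell death induced by hydrogen peroxide oxidative stress; compound pretreatment for 60 min then peroxide exposure for 2 h; potency is for protecting the cells against peroxide damage rather than for killing them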

T2 sequence (P49327 whole entry, the tested form may be a part): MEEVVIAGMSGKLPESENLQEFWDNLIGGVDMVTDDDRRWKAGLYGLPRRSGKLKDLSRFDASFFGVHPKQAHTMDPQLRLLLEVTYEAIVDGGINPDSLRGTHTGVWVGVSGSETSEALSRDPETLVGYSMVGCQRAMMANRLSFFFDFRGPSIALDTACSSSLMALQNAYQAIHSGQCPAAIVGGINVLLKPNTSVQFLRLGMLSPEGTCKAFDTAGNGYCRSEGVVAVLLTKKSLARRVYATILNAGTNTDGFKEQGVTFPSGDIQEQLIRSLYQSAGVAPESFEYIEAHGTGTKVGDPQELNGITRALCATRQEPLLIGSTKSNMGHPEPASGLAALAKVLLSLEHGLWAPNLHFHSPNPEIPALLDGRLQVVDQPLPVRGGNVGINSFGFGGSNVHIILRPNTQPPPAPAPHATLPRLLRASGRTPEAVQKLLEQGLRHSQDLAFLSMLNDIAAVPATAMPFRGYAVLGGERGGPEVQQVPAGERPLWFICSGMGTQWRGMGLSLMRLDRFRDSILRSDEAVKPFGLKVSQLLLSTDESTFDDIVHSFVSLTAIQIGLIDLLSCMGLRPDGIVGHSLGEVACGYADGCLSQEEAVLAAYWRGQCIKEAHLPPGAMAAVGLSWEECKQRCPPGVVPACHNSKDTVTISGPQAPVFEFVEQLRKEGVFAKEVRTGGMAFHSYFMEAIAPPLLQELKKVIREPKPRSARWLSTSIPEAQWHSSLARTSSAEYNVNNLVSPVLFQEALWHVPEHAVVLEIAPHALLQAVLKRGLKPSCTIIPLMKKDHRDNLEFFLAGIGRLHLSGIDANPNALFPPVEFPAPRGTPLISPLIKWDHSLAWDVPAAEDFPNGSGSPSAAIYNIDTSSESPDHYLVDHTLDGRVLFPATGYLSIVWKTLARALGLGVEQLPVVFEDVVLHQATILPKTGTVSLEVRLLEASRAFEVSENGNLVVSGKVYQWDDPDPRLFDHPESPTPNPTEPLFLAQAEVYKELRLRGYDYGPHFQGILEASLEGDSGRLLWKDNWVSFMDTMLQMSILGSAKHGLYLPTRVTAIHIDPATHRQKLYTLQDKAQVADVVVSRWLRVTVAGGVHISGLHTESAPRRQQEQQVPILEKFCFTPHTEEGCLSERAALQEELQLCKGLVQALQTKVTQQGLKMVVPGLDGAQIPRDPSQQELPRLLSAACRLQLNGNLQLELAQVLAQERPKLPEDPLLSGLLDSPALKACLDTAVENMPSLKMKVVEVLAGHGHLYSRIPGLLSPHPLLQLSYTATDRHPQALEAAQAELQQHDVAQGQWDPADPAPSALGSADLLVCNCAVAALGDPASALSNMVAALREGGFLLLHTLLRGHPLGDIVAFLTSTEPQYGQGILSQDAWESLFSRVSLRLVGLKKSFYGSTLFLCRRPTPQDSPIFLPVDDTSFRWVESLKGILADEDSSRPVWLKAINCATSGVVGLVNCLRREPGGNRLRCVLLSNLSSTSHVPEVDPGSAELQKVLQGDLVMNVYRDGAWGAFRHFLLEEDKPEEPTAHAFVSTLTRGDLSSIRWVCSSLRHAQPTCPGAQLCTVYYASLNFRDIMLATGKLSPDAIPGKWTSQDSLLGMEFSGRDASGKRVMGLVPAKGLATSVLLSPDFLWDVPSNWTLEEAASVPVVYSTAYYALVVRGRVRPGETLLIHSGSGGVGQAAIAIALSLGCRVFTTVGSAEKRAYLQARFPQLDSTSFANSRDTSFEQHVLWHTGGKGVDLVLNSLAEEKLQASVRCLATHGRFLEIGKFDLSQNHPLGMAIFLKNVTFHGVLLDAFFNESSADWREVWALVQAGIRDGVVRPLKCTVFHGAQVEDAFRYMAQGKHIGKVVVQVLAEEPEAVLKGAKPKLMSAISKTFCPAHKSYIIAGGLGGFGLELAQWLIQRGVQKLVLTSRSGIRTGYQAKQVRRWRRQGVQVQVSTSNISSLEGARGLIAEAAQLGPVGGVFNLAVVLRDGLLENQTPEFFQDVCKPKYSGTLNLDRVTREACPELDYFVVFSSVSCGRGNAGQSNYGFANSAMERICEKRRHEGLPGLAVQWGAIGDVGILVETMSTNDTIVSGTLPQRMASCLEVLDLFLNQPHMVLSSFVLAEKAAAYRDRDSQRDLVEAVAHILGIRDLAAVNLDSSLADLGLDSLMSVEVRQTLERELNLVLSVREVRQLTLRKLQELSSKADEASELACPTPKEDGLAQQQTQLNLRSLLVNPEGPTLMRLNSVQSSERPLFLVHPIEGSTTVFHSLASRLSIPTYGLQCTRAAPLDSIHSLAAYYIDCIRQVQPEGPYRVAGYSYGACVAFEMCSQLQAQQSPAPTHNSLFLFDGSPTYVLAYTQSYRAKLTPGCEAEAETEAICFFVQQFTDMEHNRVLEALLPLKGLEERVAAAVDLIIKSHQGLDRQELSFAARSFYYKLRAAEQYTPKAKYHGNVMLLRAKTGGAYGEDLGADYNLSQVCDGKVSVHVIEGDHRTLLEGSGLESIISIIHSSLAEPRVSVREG
Sequence of Cytochrome P450 3A4 (P08684 whole entry): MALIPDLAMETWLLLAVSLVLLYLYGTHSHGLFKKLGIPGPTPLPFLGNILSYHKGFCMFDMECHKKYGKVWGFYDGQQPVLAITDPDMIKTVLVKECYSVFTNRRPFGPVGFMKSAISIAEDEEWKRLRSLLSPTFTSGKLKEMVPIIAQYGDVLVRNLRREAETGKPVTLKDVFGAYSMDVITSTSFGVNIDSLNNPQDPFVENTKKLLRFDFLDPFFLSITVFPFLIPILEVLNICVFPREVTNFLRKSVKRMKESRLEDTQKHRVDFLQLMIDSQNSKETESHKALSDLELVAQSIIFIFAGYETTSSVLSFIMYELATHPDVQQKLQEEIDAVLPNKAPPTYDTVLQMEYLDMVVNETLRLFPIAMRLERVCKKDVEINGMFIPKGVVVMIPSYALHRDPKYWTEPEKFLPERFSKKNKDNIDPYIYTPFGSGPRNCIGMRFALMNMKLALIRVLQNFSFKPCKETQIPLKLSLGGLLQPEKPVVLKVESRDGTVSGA

Structure (SMILES): Cc1ccc(C(=O)N/N=C\c2ccccn2)cn1
- IC50 [1]: > 47.1 µM (inactive)
- EC50 [2]: > 53 µM (inactive)

Structure (SMILES): O=C(CCNC(=O)c1ccc(Br)cc1)Nc1nccs1
- EC50 [3]: 23.9 µM (inconclusive)
- EC50 [4]: > 38 µM (not active)

Structure (SMILES): Cc1ccc(S(=O)(=O)/N=C(/c2ccccc2)N2CCOCC2)c(C)c1
- EC50 [3]: > 160 µM (inconclusive)
- EC50 [4]: > 38 µM (not active)

Structure (SMILES): O=C(O)CC(NC(=O)C(c1ccccc1)c1ccccc1)c1cccc([N+](=O)[O-])c1 (configuration not stated)
- IC50 [5]: 9.02 µM (active)
- IC50 [6]: 7.4 µM (active)

Structure (SMILES): Cc1nn(-c2cccc(Cl)c2)c2c1C(c1cccnc1)C(C#N)=C(N)O2 (configuration not stated)
- AC50 [7]: 16.7 µM (active)
- EC50 [8]: 5.05 µM (active)

Structure (SMILES): Cc1cc(C)c(C#N)c(SCC(=O)c2ccc(Cl)cc2Cl)n1
- EC50 [9]: 0.169 µM (active)
- EC50 [10]: > 60 µM (not active)
- IC50 [5]: 7.15 µM (active)
- IC50 [6]: 4.77 µM (active)
- AC50 [11]: 17.8 µM (inconclusive)

Structure (SMILES): O=C(Cc1cc(O)n[nH]1)N/N=C/c1ccccc1Cl
- AC50 [7]: 2 µM (active)
- EC50 [8]: 1.26 µM (active)

Structure (SMILES): Cc1ccc(-n2c(S)nnc2Cc2ccccc2)c(C)c1
- EC50 [3]: > 150 µM (inactive)
- EC50 [4]: 2.71 µM (active)

Structure (SMILES): O=C(CSc1nc2ccccc2n1S(=O)(=O)c1cccc([N+](=O)[O-])c1)NCCc1ccccc1
- IC50 [5]: 3.67 µM (active)
- IC50 [6]: 2.4 µM (active)

Structure (SMILES): Cn1c2c(c(=O)n(C)c1=O)C(c1ccc(Br)cc1)Nc1ccccc1O2 (configuration not stated)
- IC50 [12]: 25.7 µM (active)

Structure (SMILES): Cc1c(C(=O)Nc2c(F)cccc2F)sc2ncn(CC(=O)N3CCCCC3)c(=O)c12
- IC50 [1]: > 47.1 µM (inactive)
- EC50 [2]: > 53 µM (inactive)

Structure (SMILES): COc1ccc(N2C(=O)C(Cl)=C(NCc3ccccc3)C2=O)cc1
- AC50 [7]: 68.8 µM (active)
- EC50 [8]: 12.9 µM (active)

Structure (SMILES): O=C(Cn1cnc2c(nnn2Cc2ccc(F)cc2)c1=O)NC1CCCC1
- EC50 [3]: > 150 µM (inactive)
- EC50 [4]: > 38 µM (not active)

Structure (SMILES): Cc1ccc(NC(=O)c2cc(=O)c3ccccc3o2)cc1S(=O)(=O)N1CCOCC1
- IC50 [12]: > 79 µM (inactive)

Structure (SMILES): C=CCn1c(SCc2nc(O)c3ccccc3n2)nnc1-c1cc2cc(Cl)ccc2o1
- EC50 [3]: > 150 µM (inactive)
- EC50 [4]: 0.052 µM (active)

Structure (SMILES): COc1ccc(C(=O)N/N=C\c2coc3ccc(Cl)cc3c2=O)cc1
- AC50 [7]: > 120 µM (inactive)
- EC50 [8]: 19.8 µM (active)

Structure (SMILES): CCC(=O)Nc1c(C)nn(C(=O)CC)c1C
- AC50 [7]: > 380 µM (inactive)
- EC50 [8]: > 380 µM (inactive)

Structure (SMILES): COc1ccc(CNC(=O)C2(c3ccc(Cl)cc3)CC2)cc1
- IC50 [1]: > 47.1 µM (inactive)
- EC50 [2]: > 53 µM (inactive)

Reference: ChEMBL document CHEMBL1201862, “PubChem BioAssay data set” (2004)
